Literature values as cited in patent US20040216174A1, “Screening assays for targets and drugs useful in treatment and prevention of lipid metabolism disorders” (priority 2003, published 2004).

System: C. elegans
Conditions: treatment with antioxidant

For vitamin E, which “effect on germline development” value is on record?
The value was “slows down germline development”.
